Tested on: IL-1 beta-induced coronary stenosis
Experiment: not given
Conditions: long term treatment; cited from earlier work
In the case of `O=S(=O)(c1cccc2cnccc12)N1CCCNCC1` [fasudil], the coronary constrictive remodeling is given as “promote a regression of coronary constrictive remodeling” and the coronary stenosis is given as “progressively reduce coronary stenosis”.

Tested on: rat stroke model
Experiment: not given
Conditions: in vivo; cited from earlier work
For `O=S(=O)(c1cccc2cnccc12)N1CCCNCC1` [fasudil], the “infarct size and neurologic deficit” value is listed as “reduce both the infarct size and neurologic deficit”.

Target: ROCK2 (Homo sapiens (Human), UniProt O75116)
Sequence (O75116 whole entry, species assumed): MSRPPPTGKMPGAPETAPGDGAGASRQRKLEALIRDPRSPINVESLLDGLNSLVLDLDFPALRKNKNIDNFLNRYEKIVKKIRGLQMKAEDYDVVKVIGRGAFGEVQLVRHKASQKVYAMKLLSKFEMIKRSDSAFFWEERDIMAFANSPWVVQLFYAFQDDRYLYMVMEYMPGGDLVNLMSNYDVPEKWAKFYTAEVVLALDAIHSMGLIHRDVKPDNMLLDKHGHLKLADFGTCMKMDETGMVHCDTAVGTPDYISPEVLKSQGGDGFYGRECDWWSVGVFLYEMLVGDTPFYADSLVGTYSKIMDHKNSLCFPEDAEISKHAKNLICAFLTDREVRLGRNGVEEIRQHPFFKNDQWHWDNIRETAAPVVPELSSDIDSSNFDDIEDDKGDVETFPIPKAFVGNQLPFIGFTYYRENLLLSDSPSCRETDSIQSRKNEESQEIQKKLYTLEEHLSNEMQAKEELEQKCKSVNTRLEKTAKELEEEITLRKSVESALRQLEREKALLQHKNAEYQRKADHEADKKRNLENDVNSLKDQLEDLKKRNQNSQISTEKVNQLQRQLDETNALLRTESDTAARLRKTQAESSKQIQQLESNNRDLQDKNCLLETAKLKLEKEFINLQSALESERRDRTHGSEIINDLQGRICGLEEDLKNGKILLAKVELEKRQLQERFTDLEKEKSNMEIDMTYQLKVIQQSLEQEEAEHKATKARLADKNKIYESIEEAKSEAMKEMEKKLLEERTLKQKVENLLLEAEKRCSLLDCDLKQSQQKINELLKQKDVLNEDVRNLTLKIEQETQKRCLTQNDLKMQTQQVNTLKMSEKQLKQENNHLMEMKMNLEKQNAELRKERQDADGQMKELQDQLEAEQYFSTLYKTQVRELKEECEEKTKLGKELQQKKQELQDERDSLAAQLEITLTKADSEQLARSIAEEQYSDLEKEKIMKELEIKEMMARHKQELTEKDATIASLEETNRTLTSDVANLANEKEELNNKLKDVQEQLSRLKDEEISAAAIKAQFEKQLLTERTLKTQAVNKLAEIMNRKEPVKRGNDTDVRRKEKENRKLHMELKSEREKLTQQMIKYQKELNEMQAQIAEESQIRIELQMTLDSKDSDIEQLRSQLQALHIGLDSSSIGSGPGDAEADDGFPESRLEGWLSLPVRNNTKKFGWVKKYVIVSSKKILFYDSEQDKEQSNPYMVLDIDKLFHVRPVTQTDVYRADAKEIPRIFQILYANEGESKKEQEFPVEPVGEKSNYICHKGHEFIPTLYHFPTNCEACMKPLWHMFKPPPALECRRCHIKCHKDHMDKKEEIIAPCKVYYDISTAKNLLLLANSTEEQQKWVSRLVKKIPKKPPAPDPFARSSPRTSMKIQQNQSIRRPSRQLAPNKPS
Experiment: ROCK assay (Caliper LABCHIP peptide phosphorylation, 5 μM ATP)
Format: biochemical
Conditions: 1.5 μM peptide substrate
Work on `CC(C)(C(=O)Nc1ccc2c(c1)OCc1cnccc1-2)c1ccccc1` [Example I-36, N-(5H-chromeno [3,4-c]pyridin-8-yl)-2-methyl-2-phenylpropanamide] yielded an IC50 of 204 nM. For `COC(=O)c1ccc(C(=O)Nc2ccc3c(c2)OCc2cnccc2-3)cc1` [Example I-56, methyl 4-(5H-chromeno[3,4-c]pyridin-8-ylcarbamoyl) benzoate], the IC50 was 626 nM. For `O=C(CC(c1ccccc1)c1ccccc1)Nc1ccc2c(c1)OCc1cnccc1-2` [Example I-67, N-(5H-chromeno[3,4-c]pyridin-8-yl)-3,3-diphenylpropanamide], the IC50 was 471 nM. `O=C(NCCc1ccccc1)Nc1ccc2c(c1)OCc1cnccc1-2` [II-3, 1-(5H-chromeno[3,4-c]pyridin-8-yl)-3-phenethylurea] gave an IC50 of 189 nM. `CC(C(=O)Nc1ccc2c(c1)OCc1cnccc1-2)c1ccccc1Cl` (stereo not shown) [Example I-5, 2-(2-chlorophenyl)-N-(5H-chromeno [3,4-c]pyridin-8-yl) propanamide] gave an IC50 of 33.5 nM. `O=C(NCCc1ccc2c(c1)OCO2)Nc1ccc2c(c1)OCc1cnccc1-2` [II-12, 1-(2-(benzo[d][1,3]dioxol-5-yl)ethyl)-3-(5H-chromeno[3,4-c]pyridin-8-yl)urea] gave an IC50 of 685 nM. In the case of `O=C(Cc1ccc(F)cc1Cl)Nc1ccc2c(c1)OCc1cnccc1-2` [Example I-10, 2-(2-chloro-4-fluorophenyl)-N-(5H-chromeno[3,4-c]pyridin-8-yl)acetamide], the IC50 is reported as 6.27 nM. With `O=C(Nc1ccc2c(c1)OCc1cnccc1-2)c1cscn1` [Example I-44, N-(5H-chromeno[3,4-c]pyridin-8-yl) thiazole-4-carboxamide] the IC50 was 1450 nM. For `Cc1cccc(CC(=O)Nc2ccc3c(c2)OCc2cnccc2-3)c1` [Example I-12, N-(5H-chromeno[3,4-c]pyridin-8-yl)-2-m-tolylacetamide], the IC50 was 74.5 nM. In the case of `Cc1onc(-c2ccccc2)c1NC(=O)Nc1ccc2c(c1)OCc1cnccc1-2` [II-11, 1-(5H-chromeno[3,4-c]pyridin-8-yl)-3-(5-methyl-3-phenylisoxazol-4-yl)urea], the IC50 is reported as 2240 nM. Molecule `O=C(Cc1cccc(F)c1)Nc1ccc2c(c1)[nH]c1cnccc12` [Example IV-3, 2-(3-Fluorophenyl)-N-(9H-pyrido[3,4-b]indol-7-yl)acetamide] has an IC50 of 21 nM. In the case of `O=C(NCCc1ccc(Cl)cc1)Nc1ccc2c(c1)OCc1cnccc1-2` [II-9, 1-(4-chlorophenethyl)-3-(5H-chromeno[3,4-c]pyridin-8-yl) urea], the IC50 is reported as 971 nM. With `O=C(NCCc1cccc(Cl)c1)Nc1ccc2c(c1)OCc1cnccc1-2` [II-10, 1-(3-chlorophenethyl)-3-(5H-chromeno[3,4-c]pyridin-8-yl) urea] the IC50 was 248 nM. In the case of `N[C@@H](CCc1ccccc1)C(=O)Nc1ccc2c(c1)OCc1cnccc1-2` [Example I-3, (S)-2-amino-N-(5H-chromeno[3,4-c]pyridin-8-yl)-4-phenylbutanamide], the IC50 is reported as 284 nM. For `O=C(CCc1ccc(Cl)cc1)Nc1ccc2c(c1)OCc1cnccc1-2` [Example I-37, 3-(4-chlorophenyl)-N-(5H-chromeno [3,4-c]pyridin-8-yl) propanamide], the IC50 was 323 nM. For `O=C(CCc1ccccc1)Nc1ccc2c(c1)OCc1cnccc1-2` [Example I-60, N-(5H-chromeno[3,4-c]pyridin-8-yl)-3-phenylpropanamide], the IC50 was 40.4 nM. `N#Cc1ccc(-c2cnn(Cc3cccc(C(=O)Nc4ccc5c(c4)OCc4cnccc4-5)c3)c2)cc1` [Example I-27, N-(5H-chromeno[3,4-c]pyridin-8-yl)-3-((4-(4-cyanophenyl)-1H-pyrazol-1-yl)methyl)benzamide] gave an IC50 of 60.8 nM. Molecule `COc1ccc(CCNC(=O)Nc2ccc3c(c2)OCc2cnccc2-3)cc1` [II-6, 1-(5H-chromeno[3,4-c]pyridin-8-yl)-3-(4-methoxyphenethyl) urea] has an IC50 of 1610 nM. For `Cc1cc(F)ccc1CC(=O)Nc1ccc2c(c1)OCc1cnccc1-2` [Example I-24, N-(5H-chromeno[3,4-c]pyridin-8-yl)-2-(4-fluoro-2-methylphenyl) acetamide], the IC50 was 11.1 nM. With `O=C(Nc1ccc2c(c1)OCc1cnccc1-2)c1cccc(Cl)c1` [Example I-53, 3-chloro-N-(5H-chromeno[3,4-c]pyridin-8-yl)benzamide] the IC50 was 4500 nM. Molecule `N#Cc1cccc(CC(=O)Nc2ccc3c(c2)[nH]c2cnccc23)c1` [Example IV-5, 2-(3-Cyanophenyl)-N-(9H-pyrido[3,4-b]indol-7-yl)acetamide] has an IC50 of 383 nM. Work on `O=C(Nc1ccc2c(c1)OCc1cnccc1-2)C1Cc2ccccc2C1` [Example I-72, N-(5H-chromeno[3,4-c]pyridin-8-yl)-2,3-dihydro-1H-indene-2-carboxamide] yielded an IC50 of 58.7 nM. `NS(=O)(=O)c1ccc(C(=O)Nc2ccc3c(c2)OCc2cnccc2-3)cc1` [Example I-40, N-(5H-chromeno[3,4-c]pyridin-8-yl)-4-sulfamoylbenzamide] showed an IC50 of 500 nM. Work on `O=C(Cc1cccnc1)Nc1ccc2c(c1)OCc1cnccc1-2` [Example I-42, N-(5H-chromeno[3,4-c]pyridin-8-yl)-2-(pyridin-3-yl) acetamide] yielded an IC50 of 287 nM. Molecule `O=C(Cc1ccc(Cl)c(Cl)c1)Nc1ccc2c(c1)OCc1cnccc1-2` [Example I-68, N-(5H-chromeno[3,4-c]pyridin-8-yl)-2-(3,4-dichlorophenyl) acetamide] has an IC50 of 362 nM. `O=C(Nc1ccc2c(c1)OCc1cnccc1-2)c1cccc(F)c1` [Example I-52, N-(5H-chromeno[3,4-c]pyridin-8-yl)-3-fluorobenzamide] showed an IC50 of 3560 nM. For `O=C(CCOc1ccccc1)Nc1ccc2c(c1)OCc1cnccc1-2` [Example I-2, N-(5H-chromeno[3,4-c]pyridin-8-yl)-3-phenoxypropanamide], the IC50 was 82.2 nM. `COc1ccc(CCC(=O)Nc2ccc3c(c2)OCc2cnccc2-3)cc1` [Example I-57, N-(5H-chromeno[3,4-c]pyridin-8-yl)-3-(4-methoxyphenyl) propanamide] showed an IC50 of 1140 nM. With `O=C(Nc1ccc2c(c1)OCc1cnccc1-2)c1ccccc1Cl` [Example I-51, 2-chloro-N-(5H-chromeno[3,4-c]pyridin-8-yl)benzamide] the IC50 was 1150 nM. For `CC(=O)Nc1cccc(C(=O)Nc2ccc3c(c2)OCc2cnccc2-3)c1` [Example I-35, 3-acetamido-N-(5H-chromeno[3,4-c]pyridin-8-yl) benzamide], the IC50 was 434 nM. In the case of `COc1cc(CC(=O)Nc2ccc3c(c2)OCc2cnccc2-3)cc(OC)c1` [Example I-18, N-(5H-chromeno[3,4-c]pyridin-8-yl)-2-(3,5-dimethoxyphenyl) acetamide], the IC50 is reported as 393 nM. `O=C(Nc1ccc2c(c1)OCc1cnccc1-2)c1ccc(F)cc1` [Example I-28, N-(5H-chromeno[3,4-c]pyridin-8-yl)-4-fluorobenzamide] gave an IC50 of 3440 nM. `O=C(Cc1nnn[nH]1)Nc1ccc2c(c1)OCc1cnccc1-2` [Example I-59, N-(5H-chromeno[3,4-c]pyridin-8-yl)-2-(1H-tetrazol-5-yl) acetamide] gave an IC50 of 3820 nM. Molecule `N#Cc1ccc(C(=O)Nc2ccc3c(c2)OCc2cnccc2-3)cc1` [Example I-54, N-(5H-chromeno[3,4-c]pyridin-8-yl)-4-cyanobenzamide] has an IC50 of 2560 nM. For `O=C(Cc1ccc(-n2cnc3ccccc3c2=O)cc1)Nc1ccc2c(c1)OCc1cnccc1-2` [Example I-70, N-(5H-chromeno[3,4-c]pyridin-8-yl)-2-(4-(4-oxoquinazolin-3(4H)-yl)phenyl) acetamide], the IC50 was 1130 nM. In the case of `O=C(Nc1ccc2c(c1)OCc1cnccc1-2)c1ccccc1` [Example I-50, N-(5H-chromeno[3,4-c]pyridin-8-yl)benzamide], the IC50 is reported as 4810 nM. Work on `O=C(Cc1ccc(F)cc1)Nc1ccc2c(c1)OCc1cnccc1-2` [Example I-26, N-(5H-chromeno[3,4-c]pyridin-8-yl)-2-(4-fluorophenyl) acetamide] yielded an IC50 of 38.7 nM. `O=C(Cc1cc(F)cc(F)c1)Nc1ccc2c(c1)OCc1cnccc1-2` [Example I-17, N-(5H-chromeno[3,4-c]pyridin-8-yl)-2-(3,5-difluorophenyl) acetamide] gave an IC50 of 37.8 nM. For `O=C(Cc1cc(F)cc(C(F)(F)F)c1)Nc1ccc2c(c1)OCc1cnccc1-2` [Example I-23, N-(5H-chromeno[3,4-c]pyridin-8-yl)-2-(3-fluoro-5-(trifluoromethyl)phenyl)acetamide], the IC50 was 368 nM. In the case of `CSc1ccc(CC(=O)Nc2ccc3c(c2)OCc2cnccc2-3)cc1` [Example I-25, N-(5H-chromeno[3,4-c]pyridin-8-yl)-2-(4-(methylthio)phenyl) acetamide], the IC50 is reported as 295 nM. `CN(C)c1ccc(C(=O)Nc2ccc3c(c2)OCc2cnccc2-3)cc1` [Example I-63, N-(5H-chromeno[3,4-c]pyridin-8-yl)-4-(dimethylamino) benzamide] gave an IC50 of 2370 nM. With `Cn1cccc1C(=O)Nc1ccc2c(c1)OCc1cnccc1-2` [Example I-64, N-(5H-chromeno[3,4-c]pyridin-8-yl)-1-methyl-1H-pyrrole-2-carboxamide] the IC50 was 2960 nM. Molecule `CS(=O)(=O)c1ccc(CC(=O)Nc2ccc3c(c2)OCc2cnccc2-3)cc1` [Example I-20, N-(5H-chromeno[3,4-c]pyridin-8-yl)-2-(4-(methylsulfonyl)phenyl)acetamide] has an IC50 of 1760 nM. For `O=C(Nc1ccc2c(c1)OCc1cnccc1-2)c1csc(-c2cccnc2)n1` [Example I-39, N-(5H-chromeno[3,4-c]pyridin-8-yl)-2-(pyridin-3-yl) thiazole-4-carboxamide], the IC50 was 644 nM. In the case of `COc1ccc(CC(=O)Nc2ccc3c(c2)OCc2cnccc2-3)cc1OC` [Example I-19, N-(5H-chromeno[3,4-c]pyridin-8-yl)-2-(3,4-dimethoxyphenyl) acetamide], the IC50 is reported as 2500 nM. In the case of `O=C(CCc1ccc(O)cc1)Nc1ccc2c(c1)OCc1cnccc1-2` [Example I-58, N-(5H-chromeno[3,4-c]pyridin-8-yl)-3-(4-hydroxyphenyl) propanamide], the IC50 is reported as 111 nM.

— patent publication US9663529B2, “Tricyclic pyrido-carboxamide derivatives as rock inhibitors” (BRISTOL-MYERS SQUIBB COMPANY, priority 2013, dated 2017)
